Active and inactive are the calls of the source. The rule behind the calls is not given here.
Assays:
HT-29 = assay: Antiproliferative activity against human HT-29 cells; type: functional, cell-based
[1] = Cell cycle arrest in human Rh30 cells assessed as increase in G1 cell population at 1 to 10 uM by flow cytometric analysis; type: functional, cell-based; conditions: SJRH30
MCF7 = assay: Antiproliferative activity against human MCF7 cells; type: functional, cell-based
[2] = Antiproliferative activity against human BEL-7402 cells
ECV-304 = assay: Antiproliferative activity against human ECV304 cells; type: functional, cell-based
[3] = biological target: Epidermal growth factor receptor (Homo sapiens) (UniProt P00533); conditions: at 10 µM
Description: Inhibition of EGFR at 10 uM

[4] = biological target: Proto-oncogene tyrosine-protein kinase receptor Ret (Homo sapiens) (UniProt P07949); assay: Inhibition of RET at 10 uM
[5] = biological target: T1, Ephrin type-B receptor 2 (Homo sapiens) (UniProt P29323); assay: Inhibition of EPH-B2 at 10 uM
T1 sequence (whole entry): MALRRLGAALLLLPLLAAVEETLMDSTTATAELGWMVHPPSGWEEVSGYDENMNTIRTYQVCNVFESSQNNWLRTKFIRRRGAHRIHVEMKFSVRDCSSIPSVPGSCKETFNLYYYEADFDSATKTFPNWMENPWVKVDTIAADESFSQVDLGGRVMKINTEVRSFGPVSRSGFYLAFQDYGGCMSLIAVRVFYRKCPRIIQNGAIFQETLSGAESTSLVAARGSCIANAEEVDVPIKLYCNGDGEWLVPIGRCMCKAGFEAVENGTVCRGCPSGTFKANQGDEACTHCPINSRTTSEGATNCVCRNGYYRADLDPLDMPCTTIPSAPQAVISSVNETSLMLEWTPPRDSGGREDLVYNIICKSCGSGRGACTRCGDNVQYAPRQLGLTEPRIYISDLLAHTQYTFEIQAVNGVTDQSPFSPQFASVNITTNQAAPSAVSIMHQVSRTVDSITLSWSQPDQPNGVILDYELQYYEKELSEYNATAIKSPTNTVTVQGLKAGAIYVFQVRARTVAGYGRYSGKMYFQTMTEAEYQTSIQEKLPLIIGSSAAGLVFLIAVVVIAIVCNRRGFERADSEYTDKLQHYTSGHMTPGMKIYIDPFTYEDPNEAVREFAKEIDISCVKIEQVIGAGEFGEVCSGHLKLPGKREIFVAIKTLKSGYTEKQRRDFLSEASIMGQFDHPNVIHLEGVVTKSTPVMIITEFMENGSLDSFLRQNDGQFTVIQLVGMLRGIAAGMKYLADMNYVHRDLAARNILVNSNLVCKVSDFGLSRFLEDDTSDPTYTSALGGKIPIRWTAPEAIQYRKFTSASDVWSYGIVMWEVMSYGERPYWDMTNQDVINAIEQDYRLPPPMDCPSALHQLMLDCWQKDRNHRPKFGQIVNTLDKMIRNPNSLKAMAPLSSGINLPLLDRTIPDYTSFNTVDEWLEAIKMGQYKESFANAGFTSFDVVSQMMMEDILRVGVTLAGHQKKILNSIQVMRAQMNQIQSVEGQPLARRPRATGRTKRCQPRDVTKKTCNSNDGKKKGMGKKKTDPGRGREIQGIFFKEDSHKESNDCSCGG

[6] = Inhibition of PI3K-mediated Akt pathway by Western blot analysis
[7] = biological target: Vascular endothelial growth factor receptor 2 (Homo sapiens) (UniProt P35968); conditions: at 10 µM
Description: Inhibition of KDR at 10 uM

[8] = biological target: Platelet-derived growth factor receptor beta (Homo sapiens) (UniProt P09619); assay: Inhibition of PDGFRbeta at 10 uM
[9] = biological target: Platelet-derived growth factor receptor alpha (Homo sapiens) (UniProt P16234); assay: Inhibition of PDGFRalpha at 10 uM
[10] = biological target: Phosphatidylinositol 4,5-bisphosphate 3-kinase catalytic subunit alpha isoform (Homo sapiens, UniProt P42336); assay: Inhibition of PI3Kalpha by luminescent kinase assay
[11] = biological target: Hepatocyte growth factor receptor (Homo sapiens) (UniProt P08581); assay: Inhibition of c-Met at 10 uM
[12] = biological target: Receptor tyrosine-protein kinase erbB-2 (Homo sapiens) (UniProt P04626); assay: Inhibition of ErbB2 at 10 uM
[13] = biological target: Macrophage-stimulating protein receptor (Homo sapiens) (UniProt Q04912); assay: Inhibition of RON at 10 uM
[14] = biological target: Proto-oncogene tyrosine-protein kinase Src (Homo sapiens) (UniProt P12931); conditions: at 10 µM
Description: Inhibition of c-Src at 10 uM

[15] = biological target: Mast/stem cell growth factor receptor Kit (Homo sapiens) (UniProt P10721); assay: Inhibition of c-Kit at 10 uM
[16] = Inhibition of PI3K-mediated mTOR pathway by Western blot analysis
[17] = biological target: Insulin-like growth factor 1 receptor (Homo sapiens) (UniProt P08069); assay: Inhibition of IGF1R at 10 uM
[18] = Inhibition of PI3K-mediated Akt phosphorylation at Ser473 at 3 uM by Western blot analysis
[19] = Cell cycle arrest in human Rh30 cells assessed as increase in subG1 cell phase at 10 uM by flow cytometric analysis; type: functional, cell-based; conditions: SJRH30
[20] = Inhibition of PI3K-mediated p70S6K1 phosphorylation at Thr389 at 3 uM by Western blot analysis

Chain of Platelet-derived growth factor receptor beta (Homo sapiens) (P09619 whole entry): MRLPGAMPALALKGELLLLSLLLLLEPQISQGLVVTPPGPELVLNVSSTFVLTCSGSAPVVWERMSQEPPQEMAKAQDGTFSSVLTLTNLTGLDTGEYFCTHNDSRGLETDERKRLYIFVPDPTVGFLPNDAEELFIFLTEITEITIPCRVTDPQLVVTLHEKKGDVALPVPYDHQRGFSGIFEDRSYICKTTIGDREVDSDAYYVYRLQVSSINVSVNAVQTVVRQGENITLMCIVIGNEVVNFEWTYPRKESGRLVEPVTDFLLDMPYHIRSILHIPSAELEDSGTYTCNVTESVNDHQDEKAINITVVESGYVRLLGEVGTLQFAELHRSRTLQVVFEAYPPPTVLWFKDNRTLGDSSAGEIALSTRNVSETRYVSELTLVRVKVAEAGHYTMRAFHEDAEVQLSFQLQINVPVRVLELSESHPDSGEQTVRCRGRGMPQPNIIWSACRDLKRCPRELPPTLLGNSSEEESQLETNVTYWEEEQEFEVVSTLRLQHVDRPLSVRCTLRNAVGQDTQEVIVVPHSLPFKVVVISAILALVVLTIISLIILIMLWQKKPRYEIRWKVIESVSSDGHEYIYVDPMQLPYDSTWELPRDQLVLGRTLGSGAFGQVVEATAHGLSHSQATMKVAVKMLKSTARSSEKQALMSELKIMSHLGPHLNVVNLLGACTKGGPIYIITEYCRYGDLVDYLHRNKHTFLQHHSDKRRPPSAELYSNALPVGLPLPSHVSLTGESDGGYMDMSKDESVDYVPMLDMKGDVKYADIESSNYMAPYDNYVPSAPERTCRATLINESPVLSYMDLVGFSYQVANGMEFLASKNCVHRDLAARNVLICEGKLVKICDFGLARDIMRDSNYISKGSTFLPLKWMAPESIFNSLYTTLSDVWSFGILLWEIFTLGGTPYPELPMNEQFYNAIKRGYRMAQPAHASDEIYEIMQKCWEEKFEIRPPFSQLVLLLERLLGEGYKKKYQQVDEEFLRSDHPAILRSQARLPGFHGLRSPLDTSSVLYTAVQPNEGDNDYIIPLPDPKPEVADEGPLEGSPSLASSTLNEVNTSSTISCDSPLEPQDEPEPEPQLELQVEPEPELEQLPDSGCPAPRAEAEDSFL
Chain of Proto-oncogene tyrosine-protein kinase receptor Ret (Homo sapiens) (P07949 whole entry): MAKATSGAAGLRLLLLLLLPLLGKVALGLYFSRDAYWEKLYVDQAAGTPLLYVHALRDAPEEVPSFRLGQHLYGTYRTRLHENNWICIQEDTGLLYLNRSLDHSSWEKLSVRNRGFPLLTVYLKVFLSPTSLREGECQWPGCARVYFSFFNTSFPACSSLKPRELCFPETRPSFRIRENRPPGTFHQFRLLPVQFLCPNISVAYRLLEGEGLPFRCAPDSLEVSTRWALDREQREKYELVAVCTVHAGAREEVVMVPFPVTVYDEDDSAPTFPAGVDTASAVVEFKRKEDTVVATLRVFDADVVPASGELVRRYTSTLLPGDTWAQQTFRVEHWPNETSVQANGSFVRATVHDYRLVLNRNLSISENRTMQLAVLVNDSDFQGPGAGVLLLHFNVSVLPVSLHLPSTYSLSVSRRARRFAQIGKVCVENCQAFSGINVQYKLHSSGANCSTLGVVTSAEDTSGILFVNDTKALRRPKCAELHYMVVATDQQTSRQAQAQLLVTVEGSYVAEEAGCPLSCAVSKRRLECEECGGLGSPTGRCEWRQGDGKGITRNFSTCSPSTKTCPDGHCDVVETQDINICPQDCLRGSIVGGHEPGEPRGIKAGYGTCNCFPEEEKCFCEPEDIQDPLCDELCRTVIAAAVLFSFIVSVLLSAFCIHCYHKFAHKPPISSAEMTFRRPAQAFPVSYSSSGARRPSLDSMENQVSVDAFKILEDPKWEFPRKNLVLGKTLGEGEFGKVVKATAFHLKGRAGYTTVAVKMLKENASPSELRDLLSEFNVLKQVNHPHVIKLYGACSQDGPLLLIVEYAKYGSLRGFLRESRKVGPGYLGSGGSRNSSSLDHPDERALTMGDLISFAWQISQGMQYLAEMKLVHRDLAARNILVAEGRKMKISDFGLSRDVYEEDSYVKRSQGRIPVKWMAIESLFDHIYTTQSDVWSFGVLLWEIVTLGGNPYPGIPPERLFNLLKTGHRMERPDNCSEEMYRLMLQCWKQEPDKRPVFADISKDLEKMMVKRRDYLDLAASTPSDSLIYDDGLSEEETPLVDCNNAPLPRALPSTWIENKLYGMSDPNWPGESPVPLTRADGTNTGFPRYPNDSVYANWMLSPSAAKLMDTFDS
Chain of Phosphatidylinositol 4,5-bisphosphate 3-kinase catalytic subunit alpha isoform (P42336 whole entry, canonical isoform): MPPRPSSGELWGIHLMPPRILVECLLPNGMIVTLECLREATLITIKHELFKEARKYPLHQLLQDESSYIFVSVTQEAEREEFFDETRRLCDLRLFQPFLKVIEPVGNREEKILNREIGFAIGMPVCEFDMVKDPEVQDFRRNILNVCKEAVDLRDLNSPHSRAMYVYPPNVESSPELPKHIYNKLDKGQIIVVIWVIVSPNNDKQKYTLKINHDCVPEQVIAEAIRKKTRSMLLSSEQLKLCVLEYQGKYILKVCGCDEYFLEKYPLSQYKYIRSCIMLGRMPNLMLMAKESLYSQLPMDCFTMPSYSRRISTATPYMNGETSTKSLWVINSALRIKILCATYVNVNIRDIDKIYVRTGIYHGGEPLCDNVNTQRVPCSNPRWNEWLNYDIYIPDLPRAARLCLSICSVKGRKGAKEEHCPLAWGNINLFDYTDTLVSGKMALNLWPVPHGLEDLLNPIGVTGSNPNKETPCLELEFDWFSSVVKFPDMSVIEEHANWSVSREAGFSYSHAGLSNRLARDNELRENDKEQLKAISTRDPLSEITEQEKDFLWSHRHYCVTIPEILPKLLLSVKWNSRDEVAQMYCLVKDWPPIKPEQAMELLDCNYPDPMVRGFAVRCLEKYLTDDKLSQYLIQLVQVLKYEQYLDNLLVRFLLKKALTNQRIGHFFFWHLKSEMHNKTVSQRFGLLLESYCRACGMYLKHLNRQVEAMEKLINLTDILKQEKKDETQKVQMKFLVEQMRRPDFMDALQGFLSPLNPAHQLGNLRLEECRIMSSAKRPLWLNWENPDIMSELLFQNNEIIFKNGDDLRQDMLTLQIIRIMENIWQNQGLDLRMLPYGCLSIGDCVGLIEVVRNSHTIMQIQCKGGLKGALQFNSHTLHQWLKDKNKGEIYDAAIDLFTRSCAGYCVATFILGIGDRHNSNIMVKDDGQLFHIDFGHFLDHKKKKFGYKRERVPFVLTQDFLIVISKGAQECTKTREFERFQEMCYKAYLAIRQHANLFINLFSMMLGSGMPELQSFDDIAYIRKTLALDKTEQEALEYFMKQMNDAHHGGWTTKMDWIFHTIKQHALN
Chain of Vascular endothelial growth factor receptor 2 (Homo sapiens) (P35968 whole entry): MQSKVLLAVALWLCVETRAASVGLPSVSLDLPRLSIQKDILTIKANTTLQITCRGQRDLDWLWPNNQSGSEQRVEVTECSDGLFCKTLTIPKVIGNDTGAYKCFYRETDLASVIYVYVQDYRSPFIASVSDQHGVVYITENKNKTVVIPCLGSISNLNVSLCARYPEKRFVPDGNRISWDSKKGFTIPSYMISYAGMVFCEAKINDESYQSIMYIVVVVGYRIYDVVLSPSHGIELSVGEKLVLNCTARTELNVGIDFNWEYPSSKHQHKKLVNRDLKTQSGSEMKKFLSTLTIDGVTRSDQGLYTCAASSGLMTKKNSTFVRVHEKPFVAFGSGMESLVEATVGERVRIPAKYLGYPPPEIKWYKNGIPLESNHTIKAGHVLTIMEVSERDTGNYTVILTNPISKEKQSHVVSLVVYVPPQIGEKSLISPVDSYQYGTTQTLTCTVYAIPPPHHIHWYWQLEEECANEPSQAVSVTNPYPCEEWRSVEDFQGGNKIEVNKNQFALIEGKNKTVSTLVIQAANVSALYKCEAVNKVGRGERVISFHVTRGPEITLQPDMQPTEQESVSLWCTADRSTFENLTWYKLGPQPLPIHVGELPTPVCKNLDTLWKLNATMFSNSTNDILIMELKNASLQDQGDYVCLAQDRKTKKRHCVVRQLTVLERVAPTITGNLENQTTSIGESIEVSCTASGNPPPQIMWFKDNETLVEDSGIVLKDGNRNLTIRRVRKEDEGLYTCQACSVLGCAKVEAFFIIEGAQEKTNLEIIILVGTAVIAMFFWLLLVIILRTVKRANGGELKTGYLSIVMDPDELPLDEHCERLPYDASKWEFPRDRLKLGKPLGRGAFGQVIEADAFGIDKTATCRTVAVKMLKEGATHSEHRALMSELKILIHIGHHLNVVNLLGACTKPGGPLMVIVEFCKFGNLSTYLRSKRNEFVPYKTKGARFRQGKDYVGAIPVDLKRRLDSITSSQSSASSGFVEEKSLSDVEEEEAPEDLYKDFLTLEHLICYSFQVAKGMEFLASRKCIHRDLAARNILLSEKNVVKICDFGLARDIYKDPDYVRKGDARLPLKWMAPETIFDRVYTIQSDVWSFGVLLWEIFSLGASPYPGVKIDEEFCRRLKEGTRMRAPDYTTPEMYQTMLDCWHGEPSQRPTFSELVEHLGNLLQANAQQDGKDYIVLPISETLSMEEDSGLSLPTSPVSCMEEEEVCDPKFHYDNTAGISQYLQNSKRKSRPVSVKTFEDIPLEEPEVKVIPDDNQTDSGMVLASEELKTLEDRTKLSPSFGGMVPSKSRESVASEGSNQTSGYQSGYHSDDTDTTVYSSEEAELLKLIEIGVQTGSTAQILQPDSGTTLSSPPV

| Structure (SMILES) | IC50 (HT-29) [µM] | IC50 (MCF7) [µM] | IC50 [2] [µM] | inhibition [3] [%] | inhibition [4] [%] | inhibition [5] [%] | Akt pathway inhibition (qualitative) [6] | inhibition [7] [%] | inhibition [8] [%] | inhibition [9] [%] | IC50 [10] [µM] | inhibition [11] [%] | inhibition [12] [%] | inhibition [13] [%] | inhibition [14] [%] | inhibition [15] [%] | mTOR pathway inhibition (qualitative) [16] | inhibition [17] [%] | Activity [1] | IC50 (ECV-304) [µM] | further results |
| --- | --- | --- | --- | --- | --- | --- | --- | --- | --- | --- | --- | --- | --- | --- | --- | --- | --- | --- | --- | --- | --- |
| Oc1cccc(-c2nc(N3CCOCC3)c3oc4ncccc4c3n2)c1 [PI-103] | > 50 | 22.4 | 7 | – | – | – | – | – | – | – | – | – | – | – | – | – | – | – | Active | 6.3 | – |
| CC(=O)Oc1cccc(-c2nc(N3CCOCC3)c3cc4ncccc4n3n2)c1 | > 50 | 14.4 | 12.1 | 4.6 | 19 | 37.2 | Dose-dependent effect | 23.1 | 0 | 21.8 | 0.0497 | 29 | 7.1 | 9.4 | 40 | 24.7 | Dose-dependent effect | 33.4 | Active | 3.8 | inhibition [18]: Active; Activity [19]: Active; inhibition [20]: Active |
| CS(=O)(=O)CCNCc1ccc(-c2ccc3ncnc(Nc4ccc(OCc5cccc(F)c5)c(Cl)c4)c3c2)o1 | – | – | – | – | – | – | – | – | – | – | – | – | 78 | – | – | – | – | – | – | – | – |
| CCCC(CCC)C(=O)Oc1cccc(-c2nc(N3CCOCC3)c3cc4ncccc4n3n2)c1 | 37.5 | 7.3 | 5.6 | 20.2 | 14.4 | 49.2 | Dose-dependent effect | 29.1 | 13.6 | 28.7 | 0.0607 | 29 | 25.6 | 23.1 | 49.8 | 24.9 | Dose-dependent effect | 32.7 | Active | 2.5 | inhibition [18]: Active; Activity [19]: Active; inhibition [20]: Active |
| O=C(Oc1cccc(-c2nc(N3CCOCC3)c3cc4ncccc4n3n2)c1)c1ccncc1 | 28 | 20 | 13.3 | 6.2 | 28.9 | 53.8 | Dose-dependent effect | 35.4 | 34.7 | 40 | 0.421 | 34.8 | 23.3 | 27.2 | 67.2 | 45.2 | Dose-dependent effect | 39.8 | Active | 10 | inhibition [18]: inactive; Activity [19]: Active; inhibition [20]: inactive |
| N#C/C(=C\c1ccc(O)c(O)c1)C(=O)c1ccc(O)c(O)c1 | – | – | – | – | – | – | – | – | – | – | – | – | – | – | – | – | – | 82.2 | – | – | – |
| CCN(CC)CCNC(=O)c1c(C)[nH]c(/C=C2\C(=O)Nc3ccc(F)cc32)c1C | – | – | – | – | 84.8 | – | – | – | 90.6 | 93 | – | – | – | – | – | 84.8 | – | – | – | – | – |
| Cc1[nH]c(/C=C2\C(=O)Nc3ccc(S(=O)(=O)N(C)c4cccc(Cl)c4)cc32)c(C)c1C(=O)N1CCN(C)CC1 | – | – | – | – | – | – | – | – | – | – | – | 61.8 | – | 52.2 | – | – | – | – | – | – | – |

Continued, in another order:

| IC50 (HT-29) [µM] | IC50 (MCF7) [µM] | IC50 [2] [µM] | inhibition [3] [%] | inhibition [4] [%] | inhibition [5] [%] | Akt pathway inhibition (qualitative) [6] | inhibition [7] [%] | inhibition [8] [%] | inhibition [9] [%] | IC50 [10] [µM] | inhibition [11] [%] | inhibition [12] [%] | inhibition [13] [%] | inhibition [14] [%] | inhibition [15] [%] | mTOR pathway inhibition (qualitative) [16] | inhibition [17] [%] | Structure (SMILES) | Activity [1] | IC50 (ECV-304) [µM] | further results |
| --- | --- | --- | --- | --- | --- | --- | --- | --- | --- | --- | --- | --- | --- | --- | --- | --- | --- | --- | --- | --- | --- |
| 16.4 | 6.1 | 3.6 | 16 | 25.8 | 53 | Dose-dependent effect | 25.6 | 5.1 | 14 | 0.511 | 33.9 | 12.5 | 7.4 | 48.2 | 25.4 | Dose-dependent effect | 15.6 | CCCC(=O)Oc1cccc(-c2nc(N3CCOCC3)c3cc4ncccc4n3n2)c1 | Active | 1.4 | inhibition [18]: Active; Activity [19]: Active; inhibition [20]: Active |
| 29.9 | 15.3 | 7.9 | 17.8 | 31.9 | 53.4 | Dose-dependent effect | 28.4 | 6.3 | 29.4 | 0.0478 | 32.8 | 21.3 | 3.3 | 56.2 | 18.9 | Dose-dependent effect | 41.1 | C=CC(=O)Oc1cccc(-c2nc(N3CCOCC3)c3cc4ncccc4n3n2)c1 | Active | 4 | inhibition [18]: Active; Activity [19]: Active; inhibition [20]: Active |
| – | – | – | – | – | 89.2 | – | – | – | – | – | – | – | – | – | – | – | – | Cc1nc(Nc2ncc(C(=O)Nc3c(C)cccc3Cl)s2)cc(N2CCN(CCO)CC2)n1 | – | – | – |
| 30.4 | 18.7 | 8.6 | 26.8 | 43 | 48.6 | Dose-dependent effect | 25 | 11.8 | 13 | 0.544 | 31.7 | 12.5 | 17.6 | 52.8 | 29 | Dose-dependent effect | 23.7 | CCC(=O)Oc1cccc(-c2nc(N3CCOCC3)c3cc4ncccc4n3n2)c1 | Active | 4 | inhibition [18]: Active; Activity [19]: Active; inhibition [20]: Active |
| 22.3 | 22.7 | 13.1 | 17.4 | 37.8 | 44 | Dose-dependent effect | 39.2 | 42.4 | 41.2 | 0.0336 | 43.8 | 10.9 | 37 | 65.3 | 49.4 | Dose-dependent effect | 35.2 | Oc1cccc(-c2nc(N3CCOCC3)c3cc4ncccc4n3n2)c1 | Active | 6.7 | inhibition [18]: Active; Activity [19]: Active; inhibition [20]: Active |
| 21.6 | 12.8 | 9.3 | 11.8 | 22.8 | 35.8 | Dose-dependent effect | 24.7 | 13.5 | 22.2 | 0.425 | 32.5 | 23.6 | 4.2 | 47.9 | 26.9 | Dose-dependent effect | 29.2 | O=C(Oc1cccc(-c2nc(N3CCOCC3)c3cc4ncccc4n3n2)c1)c1ccco1 | Active | 6 | inhibition [18]: inactive; Activity [19]: Active; inhibition [20]: inactive |
